Source: US12617777B2, “GPR84 antagonists and uses thereof” (Liminal BioSciences Limited, priority 2021, dated 2026)

Biological target: T1, human GPR84 receptor (Homo sapiens, UniProt Q9NQS5)
T1 construct: host or cells: HEK293, transient transfection
Assay: Gαi biosensor BRET assay in HEK293 cells (antagonism of ZQ-16)
Type: cell-based
Conditions: for inhibition at 10 µM: HEK293, single concentration 10 μM (designated F); for IC50: HEK293 cells, antagonism of 200 nmol/L ZQ-16; for inhibition at 2 µM: HEK293, single concentration 2 μM (designated A); for inhibition at 25 µM: HEK293, single concentration 25 μM (designated I)
Method in brief: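 HEK293 cells transiently expressing human GPR84, Gαi2-Rluc8, GFP10-Gγ2 and Gβ1, in Tyrode's buffer pH 7.5. Compounds preincubated 5 min at 37° C, then 200 nmol/L ZQ-16 for 5 min at room temperature; coelenterazine 400A 5 μmol/L. BRET2 acceptor/donor ratio, background- and vehicle-corrected net BRET.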

T1 sequence (Q9NQS5 whole entry): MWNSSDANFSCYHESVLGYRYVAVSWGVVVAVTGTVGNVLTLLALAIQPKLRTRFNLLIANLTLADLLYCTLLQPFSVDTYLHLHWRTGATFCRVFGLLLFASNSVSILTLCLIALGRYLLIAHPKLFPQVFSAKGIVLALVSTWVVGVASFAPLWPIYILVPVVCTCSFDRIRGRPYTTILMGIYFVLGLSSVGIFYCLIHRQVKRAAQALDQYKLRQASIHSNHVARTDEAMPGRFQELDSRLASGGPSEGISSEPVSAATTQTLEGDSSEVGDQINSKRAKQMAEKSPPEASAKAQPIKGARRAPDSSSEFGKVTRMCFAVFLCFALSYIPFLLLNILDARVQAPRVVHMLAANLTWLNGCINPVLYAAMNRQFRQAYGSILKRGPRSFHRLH

| Structure (SMILES) | inhibition at 10 µM [%] | other results |
| --- | --- | --- |
| COCCn1cc(-c2ccc(C#CCNc3ccccc3)cc2C)nn1 [Compound I-161] | ≤ 25 |  |
| CC(C)c1cc(N2CC(C)(C)C2)cnc1-c1cn(CC2CCCCO2)nn1 (centres unmarked) [Compound I-461] | > 75 |  |
| COCc1cc(C#CC2CC2)ccc1-c1cn(CC2CCCCO2)nn1 (centres unmarked) [Compound I-206] | 50 to 75 |  |
| Cc1ccc(C#CC2CC2)cc1Cc1cn(CC2CCCCO2)nn1 (centres unmarked) [Compound I-299] |  | IC50: > 3000 nM |
| CC(=O)c1cc(C#CC2CC2)ccc1-c1cn(CC2CCCCO2)nn1 (centres unmarked) [Compound I-124] | 25 to 50 |  |
| FC(F)(F)c1ccc(C#CC2CC2)cc1-c1cn(CC2CCCCO2)nn1 (centres unmarked) [Compound I-179] | 25 to 50 |  |
| CN(C)c1cc(N2CCOCC2)ccc1-c1cn(CC2OCC(C)(C)CO2)nn1 [Compound I-863] |  | inhibition at 2 µM: > 75% |
| Cc1cc(N2CC3(CN(C)C3)C2)ccc1-c1cn(CC2CCCCO2)nn1 (centres unmarked) [Compound I-145] | ≤ 25 |  |
| Cc1cc(C#CC2CC2)ccc1-n1cc(CN2CCOCC2)nn1 [Compound I-297] |  | inhibition at 25 µM: ≤ 25% |
| CC1(C)COC(Cn2cc(-c3ncc(N4CC(C)(CO)C4)cc3Cl)nn2)OC1 [Compound I-765] |  | IC50: 1000 to 3000 nM |
| Cc1cc(NC(=O)CC2CC2)ccc1-c1cn(CC2CCCCO2)nn1 (centres unmarked) [Compound I-358] |  | inhibition at 2 µM: ≤ 25% |
| CC1(C)COC(Cn2cc(-c3ncc(C#CCOC4CC4)cc3OC3CC3)nn2)OC1 [Compound I-758] |  | inhibition at 2 µM: > 75%; IC50: ≤ 300 nM |
| Cc1cc(N2CCCC(N(C)C)C2)ccc1-c1cn(CC2CCCCO2)nn1 (centres unmarked) [Compound I-153] | ≤ 25 |  |
| Cc1cc(C#CC2CC2)cnc1-c1cn(CC2CCC(C)(C)O2)nn1 (centres unmarked) [Compound I-252] | 25 to 50 |  |
| Cc1cc(C#CC2CC2)ccc1-c1cn(CC(O)CO)nn1 (centres unmarked) [Compound I-224] | 25 to 50 |  |
| Cc1cc(C#CC2CC2)ccc1-c1cn(C[C@H]2CC[C@@H](C)O2)nn1 [Compound I-225] | 25 to 50 |  |
| CN(C)c1cc(C#CC2CC2)ccc1-c1cn(CC2CCOCC2)nn1 [Compound I-200] | 25 to 50 |  |
| C(#CC1CC1)c1ccc(-c2cn(CC3CCc4ccccc4O3)nn2)cc1 (centres unmarked) [Compound I-41] |  | inhibition at 25 µM: ≤ 25% |
| Cc1ccc(N2CC(C)(C)C2)cc1-c1cn(CC2CCCCO2)nn1 (centres unmarked) [Compound I-213] | ≤ 25 |  |
| Cc1cc(N2CCC3(CC2)CNC3)ccc1-c1cn(CC2CCCCO2)nn1 (centres unmarked) [Compound I-186] |  | inhibition at 5 µM (HEK293, single concentration 5 μM (designated D)): ≤ 25% |
| Cc1cc(OC2CN3CCC2CC3)ccc1-c1cn(CC2CCCCO2)nn1 (centres unmarked) [Compound I-465] | ≤ 25 |  |
| Cc1cc(C#CC2CC2)nnc1-c1cn(CC2CCCCO2)nn1 (centres unmarked) [Compound I-433] | ≤ 25 |  |
| CN(C)c1cc(N2CC(C)(CO)C2)ccc1-c1cn(CC2OCC3(CC3)CO2)nn1 [Compound I-748] |  | inhibition at 2 µM: > 75%; IC50: ≤ 300 nM |

| Structure (SMILES) | inhibition at 10 µM [%] | other results |
| --- | --- | --- |
| FC(F)(F)COc1ccc(-c2cn(CC3CCCCO3)nn2)cc1 (centres unmarked) [Compound I-51] |  | inhibition at 25 µM: ≤ 25% |
| Cc1cc(N2CC(N(C)S(C)(=O)=O)C2)ccc1-c1cn(CC2CCCCO2)nn1 (centres unmarked) [Compound I-487] | ≤ 25 |  |
| Cc1cc(N2CC3(CCN(C)C3)C2)ccc1-c1cn(CC2CCCCO2)nn1 (centres unmarked) [Compound I-168] | ≤ 25 |  |
| Cc1cc(CN2CCOCC2)ccc1-c1cn(CC2CCCCO2)nn1 (centres unmarked) [Compound I-74] |  | inhibition at 25 µM: 25 to 50% |
| C(#CC1CC1)c1ccc(-c2cn(C[C@H]3COc4ccccc4O3)nn2)cc1 [Compound I-23] |  | inhibition at 25 µM: ≤ 25% |
| Cc1ccc(C#CC2CC2)cc1C(CC(F)(F)F)c1cn(CC2OCC(C)(C)CO2)nn1 (centres unmarked) [Compound I-681] |  | inhibition at 2 µM: > 75%; IC50: 300 to 1000 nM |
| COC1CCCN(c2ccc(-c3cn(CC4CCCCO4)nn3)c(C)c2)C1 (centres unmarked) [Compound I-428] | 25 to 50 |  |
| Cc1cc(C#CC2CC2)ccc1-c1cn(CCOC(C)(C)C)nn1 [Compound I-98] | ≤ 25 |  |
| Cc1cc(N2CCN(Cc3ccccc3)CC2)ccc1-c1cn(CC2CCCCO2)nn1 (centres unmarked) [Compound I-140] | 25 to 50 |  |
| COCCn1cc(-c2ccc(C#CC3CC3)cc2)nn1 [Compound I-103] | ≤ 25 |  |
| CC(C)Oc1cc(C#CCN2CC(C)(C)C2)cnc1-c1cn(CC2OCC(C)(C)CO2)nn1 [Compound I-676] |  | inhibition at 2 µM: > 75%; IC50: ≤ 300 nM |
| Cc1cc(N2CCCC(CO)C2)ccc1-c1cn(CC2CCCCO2)nn1 (centres unmarked) [Compound I-446] | 25 to 50 |  |
| Cc1c(-c2cn(CC3CCCCO3)nn2)ccc(C#CC2CC2)c1F (centres unmarked) [Compound I-505] |  | inhibition at 2 µM: ≤ 25% |
| CC(C)(C)C#Cc1ccc(-c2cn(CC3CCCCO3)nn2)cc1 (centres unmarked) [Compound I-58] |  | inhibition at 25 µM: ≤ 25% |
| Cc1cc(C#CC2CC2)ccc1-c1cn(CC2CCCO2)nn1 (centres unmarked) [Compound I-60] |  | IC50: > 3000 nM |
| Cc1cc(N2CCN(CC3CC4CCN3CC4)CC2)ccc1-c1cn(CC2OCC(C)(C)CO2)nn1 (centres unmarked) [Compound I-661] | ≤ 25 |  |
| CC1(CO)CN(c2ccc(-c3cn(CC4OCC5(CCC5)O4)nn3)c(CC(F)(F)F)c2)C1 (centres unmarked) [Compound I-796] |  | IC50: ≤ 300 nM |
| Cc1ccc(C#CC2CC2)nc1-c1cn(Cc2ccccn2)nn1 [Compound I-480] |  | inhibition at 2 µM: ≤ 25% |
| Cc1cc(C#CCn2ccnn2)cnc1-c1cn(CC2CCCCO2)nn1 (centres unmarked) [Compound I-841, 5-(3-(1H-1,2,3-triazol-1-yl)prop-1-yn-1-yl)-3-methyl-2-(1-((tetrahydro-2H-pyran-2-yl)methyl)-1H-1,2,3-triazol-4-yl)pyridine] |  | inhibition at 2 µM: > 75% |
| Cc1cc(C#CCNc2ccccc2)ccc1-c1cn(CC2CCCO2)nn1 (centres unmarked) [Compound I-62] | > 75 | IC50: > 3000 nM |
| C(#Cc1ccc(-c2cn(CC3CCCCO3)nn2)cc1)CC1CC1 (centres unmarked) [Compound I-44] | ≤ 25 |  |
| Cc1cc(N2CC(C)(CNS(C)(=O)=O)C2)ccc1-c1cn(CC2CCCCO2)nn1 (centres unmarked) [Compound I-448] | 50 to 75 |  |
| FC(F)(F)Cc1cc(C#CC2CC2)cnc1-c1cn(C[C@H]2CCCCO2)nn1 [Compound I-822] |  | inhibition at 2 µM: > 75%; IC50: ≤ 300 nM |

More lines, main results first:

| inhibition at 10 µM [%] | Structure (SMILES) | other results |
| --- | --- | --- |
| > 75 | CC(C)Oc1cc(N2CC(C)(CO)C2)cnc1-c1cn(CC2OCC(C)(C)CO2)nn1 [Compound I-694] |  |
| > 75 | Cc1cc(N2CCC(Cc3ccccn3)CC2)cnc1-c1cn(CC2CCCCO2)nn1 (centres unmarked) [Compound I-503] |  |
| ≤ 25 | Cc1cc(N2CCN(C(=O)c3ccccn3)CC2)ccc1-c1cn(CC2CCCCO2)nn1 (centres unmarked) [Compound I-534] |  |
| > 75 | CN(C)c1cc(N2CC(C)(CO)C2)ccc1-c1cn(CC2OCC(C)(C)CO2)nn1 [Compound I-654] | IC50: ≤ 300 nM |
| ≤ 25 | Cc1cc(N2CCN(c3cccnc3)CC2)ccc1-c1cn(CC2CCCCO2)nn1 (centres unmarked) [Compound I-545] |  |
| > 75 | CCc1cc(C#CCOC2CC2)ccc1-c1cn(CC2OCC(C)(C)CO2)nn1 [Compound I-780] | IC50: 300 to 1000 nM |
| > 75 | CC(C)Oc1cc(N2CC(C)(C)C2)cnc1-c1cn(CC2OCC(C)(C)CO2)nn1 [Compound I-664] | IC50: ≤ 300 nM |
| ≤ 25 | Cc1ccc(C#CC2CC2)cc1S(=O)(=O)c1cn(CC2OCC(C)(C)CO2)nn1 [Compound I-783, 4-((5-(cyclopropylethynyl)-2-methylphenyl)sulfonyl)-1-((5,5-dimethyl-1,3-dioxan-2-yl)methyl)-1H-1,2,3-triazole] |  |
| 25 to 50 | FC(F)c1cc(C#CC2CC2)ccc1-c1cn(CC2CCCCO2)nn1 (centres unmarked) [Compound I-560] |  |
| > 75 | CN(C)c1cc(N2CC(C)(CO)C2)ccc1-c1cn(CC2OCC(F)(F)CO2)nn1 [Compound I-729] |  |
| ≤ 25 | Cc1cc(C#CCN2CC(C)(C)C2)cnc1-c1cn(CCc2ncccn2)nn1 [Compound I-717] |  |
| ≤ 25 | CC(c1ccnc(C#CC2CC2)c1)c1cn(CC2CCCCO2)nn1 (centres unmarked) [Compound I-699] |  |
| > 75 | COCC#Cc1ccc(-c2cn(CC3OCC(C)(C)CO3)nn2)c(N(C)C)c1 [Compound I-829] | IC50: ≤ 300 nM |
| > 75 | CC(C)Oc1cc(C#CC2CC2)cnc1-c1cn(C[C@H]2CCCCO2)nn1 [Compound I-659] | IC50: ≤ 300 nM |
| ≤ 25 | Cc1cc(N2CC(C)(O)C2)ccc1-c1cn(CC2CCCCO2)nn1 (centres unmarked) [Compound I-524] |  |
| ≤ 25 | COCC#Cc1cnc(-c2cn(CC3OCC(C)(C)CO3)cn2)c(OC2CC2)c1 [Compound I-848] |  |
| > 75 | Cc1ccc(C#CC2CC2)cc1C1(c2cn(CC3CCCCO3)nn2)OCCO1 (centres unmarked) [Compound I-604] | IC50: 1000 to 3000 nM |
| > 75 | Cc1cc(C#CC2CC2)cc(F)c1-c1cn(CC2CCCCO2)nn1 (centres unmarked) [Compound I-575] |  |
| > 75 | Cc1cc(N2CCN([C@@H](C)c3ccccn3)CC2)ccc1-c1cn(CC2OCC(C)(C)CO2)nn1 [Compound I-716] | IC50: 300 to 1000 nM |
| > 75 | CC1(C)CN(CC#Cc2cnc(-c3cn(C[C@H]4CCCCO4)nn3)c(CC(F)(F)F)c2)C1 [Compound I-818] |  |
| ≤ 25 | Cc1cc(C#CCn2cc(C3CC3)nn2)cnc1-c1cn(CC2CCCCO2)nn1 (centres unmarked) [Compound I-732] |  |
| > 75 | COC(c1cn(CC2CC(C)(C)CO2)nn1)c1cc(C#CC2CC2)ccc1C (centres unmarked) [Compound I-642] | IC50: 1000 to 3000 nM |
| > 75 | Cc1cc(C#CC2CC(F)(F)C2)ccc1-c1cn(CC2CCCCO2)nn1 (centres unmarked) [Compound I-640] |  |
| > 75 | Cc1cc(N2CC(C)(Nc3ccccc3)C2)ccc1-c1cn(CC2CCCCO2)nn1 (centres unmarked) [Compound I-537, 3-methyl-1-(3-methyl-4-(1-((tetrahydro-2H-pyran-2-yl)methyl)-1H-1,2,3-triazol-4-yl)phenyl)-N-phenylazetidin-3-amine] | IC50: 300 to 1000 nM |
| ≤ 25 | Cc1cc(C#CC2CC2)ccc1-c1cn(Cc2cncn2C)nn1 [Compound I-528] |  |
